Assay results published in patent publication US12582616B2, “Molecular targets for modulation of dissociative and associative states” (The Board of Trustees of the Leland Stanford Junior …, priority 2020, dated 2026).
Entries after “also recorded” stand apart in the source; their conditions may differ.

Experiments:
[1] = test system: retrosplenial cortex (RSP); assay: Widefield imaging of cortical activity in GCaMP6s mice; conditions: i.p. injection, ketamine 50 mg/kg
Excerpt: We recorded multiregional neuronal activity by leveraging widefield microscopy, a cleared skull preparation, and atlas registration in GCaMP6s-expressing mice (FIGS. 1A-1C)^6,8,15.
As described^8, mice were anesthetized with isoflurane, the scalp was removed, the skull cleaned and dried, and a custom head-plate was cemented to contacts over the cerebellum and in front of the olfactory bulb. The skull was then covered in a thin layer of cyanoacrylate glue (Apollo 2000, Cyberbond), clear dental acrylic (Ortho-Jet, Lang Dental), and clear nail polish (Electron Microscopy Services). […] (0.1 mg/kg) was injected subcutaneously for pain management. […] Imaging was performed on a custom-built fluorescence microscope designed for high light collection efficiency and large field of view. […] Alternating 410 nm and 488 nm illumination for non-Ca^2+ dependent artifact removal was controlled using a microcontroller (Arduino) slaved to the frame output trigger of the camera.
Analysis was performed using custom MATLAB (MathWorks) scripts. Widefield imaging videos were registered to a 2D top-projection atlas generated from the annotated Allen Brain Atlas volume, version CCFv2, in MATLAB (MathWorks), using an affine transformation computed from four manually selected control points. Each video was DF/F normalized, using the median for each pixel over the entire time series as F. The 410 nm channel was then temporally smoothed using a moving average (width=400 ms). The smoothed 410 nm DF/F signal for each pixel was regressed onto the 488 nm DF/F signal for the corresponding pixel, and the regression coefficients were used to scale the 410 nm channel to the 488 nm channel. This scaled 410 nm DF/F signal was then subtracted from the 488 nm DF/F signal to produce a normalized signal for each pixel. For quantification, activity traces were extracted from points centered in five cortical regions (visual, somatosensory, parietal, motor, retrosplenial) on the left hemisphere of the brain. The video data was Gaussian smoothed spatially (radius=2 pixels).
Each trace (corresponding to either a fiber photometry signal, a cellular two-photon signal, a widefield regional centroid, a widefield pixel, an sEEG trace, or a smoothed spike rate Neuropixels trace) was z-scored, and the power spectral density (PSD) was then estimated using Welch's method (pwelch( ) in Matlab), with a window size of 10*fs (15*fs for human sEEG) where fs is the sampling rate of the signal. The average band power within a specified band (i.e. 1-3 Hz) was then computed by integrating the PSD estimate (bandpower in Matlab). […] Unless otherwise indicated, the PSD was computed across the time window from minutes 10 to 11 post-injection.

[2] = test system: mice; assay: Open field test; type: in vivo, mouse; conditions: 5 min session, compared with saline
Excerpt: Open Field Test: Mice were placed in an evenly illuminated 50 cm×50 cm open field test box. Mouse position was captured using a webcam and Viewer software (Biobserve).

[3] = test system: mice; assay: Hot plate test; conditions: for dissociation-like behavior (sensory-detection vs affective responses), hot plate: other drug classes
Procedure: Hot Plate Test: Mice were placed on the hot plate (Bioseb), which was set to 55° C. and surrounded by a clear circular perimeter. Mouse activity was recorded using two cameras from different angles. The experiment ended when the mouse jumped to escape or 90 seconds had elapsed. Care was taken to clean and dry the hot plate apparatus between animals. For optogenetic experiments, mice were connected to patch cords and then returned to a holding cage. Illumination began 30 seconds before mice were placed on the hot plate.

[4] = test system: mice; assay: Tail suspension test; type: in vivo, mouse; conditions: PCP 5 mg/kg
Procedure: Tail Suspension Test: Mouse activity was recorded using a 60 Hz web camera. Struggling activity was quantified for minutes 2-10. […] Illumination began 30 seconds before tails were secured with tape and suspended from the beam. Mice were excluded if they climbed on their own tails.

Row | Molecule | 1-3 Hz oscillation localized to retrosplenial cortex (RSP), widefield imaging [1] | open-field locomotion velocity [2] | dissociation-like behavior (sensory-detection vs affective responses), hot plate [3] | longer-timescale escape and social behaviors [4] | responsivity to salient stimuli (time-to-jump, rearing/socialization) ([3]; LSD 0.3 mg/kg)
1 | CN1C(=O)CN=C(c2ccccc2)c2cc(Cl)ccc21 [diazepam] | Neither the GABAergic sedative diazepam nor the centrally-acting opioid-analgesic buprenorphine elicited the rhythm | decreased velocity | did not recapitulate dissociative-like behavior |  | 
2 | CC12CC3CC(C)(C1)CC(N)(C3)C2 [memantine] | did not elicit oscillation |  |  |  | 
3 | c1ccc(C2(N3CCCCC3)CCCCC2)cc1 [PCP, phencyclidine] | induced the RSP-localized oscillation | locomotion velocity was unchanged | recapitulated ketamine's behavioral disconnection between sensory-detection and affective responses | inhibited longer-timescale escape and social behaviors | 
4 | Cc1cccc([C@H](C)c2cnc[nH]2)c1C [dexmedetomidine] | elicited waves of cortical activity without RSP restriction |  |  |  | 
5 | C[C@]12N[C@H](Cc3ccccc31)c1ccccc12 [MK-801] | induced the RSP-localized oscillation |  |  |  | 
6 | (+)-Lysergic acid diethylamide (+)-tartrate (2:1) [LSD] | did not elicit oscillation | reducing locomotion in the stimulus-poor open-field; also recorded: decreased velocity | disrupted neither sensory-detection nor affective responses |  | tended to increase responsivity to salient stimuli
7 | CC(C)c1cccc(C(C)C)c1O [propofol] | elicited waves of cortical activity without RSP restriction |  |  |  | 
